Experimental data taken from patent publication US4156729A, “1,2-Benzisothiazolin-3-ones” (Bayer Aktiengesellschaft, priority 1976, dated 1979).
Converted amounts (≈) assume the structure as drawn.

Key:
Human PRP = experiment: In vitro ADP-induced thrombocyte aggregation inhibition, human PRP; type: cell-based; settings: 10 min preincubation, 37° C.
Procedure: (§1) In vitro: Blood from healthy human test subjects of both sexes, and blood of rabbits and rats is used. One part of 3.8% strength aqueous sodium citrate solution, as an anticoagulant, is mixed with nine parts of blood. Centrifugation of this blood gives a platelet-rich citrate plasma (PRP); see generally Jurgens/Beller, Klinische Methoden der Blutgerinnungsanalyse, Thieme Verlag, Stuttgart (1959).
(§2) A mixture of 0.8 ml of PRP and 0.1 ml of the active compound solution is preincubated for 10 minutes at 37° C. Thrombocyte aggregation is then determined by the turbidimetric method of Born [J. Physiol. (London) 162, 67 (1962)] in an aggregometer at 37° C. [see generally Therapeutische Berichte, 47, 80-86 (1975)]. An aggregation-initiating agent (0.1 ml) such as collagen or ADP is thus added to the preincubated sample. The change in the optical density in the sample of PRP is recorded over a period of 6 minutes and the percentage inhibition is then calculated from the integrated area or the deflection.
(§3) Table I presents ranges of concentration at which the thrombocyte aggregation is inhibited by a value of 50% utilizing 2-(2-diethylaminoethyl)-4,6-dimethyl-1,2-benzisothiazolin-3-one (as the 1,5-naphthalenedisulfonate hemisalt) [compound A].

Rabbit PRP [1] = experiment: In vitro ADP-induced thrombocyte aggregation inhibition, rabbit PRP; type: cell-based; settings: Oryctolagus cuniculus, 10 min preincubation, 37° C.
Procedure: as §1, §2, §3

Rat PRP = experiment: In vitro ADP-induced thrombocyte aggregation inhibition, rat PRP; type: cell-based; settings: 10 min preincubation, 37° C.
Procedure: as §1, §2, §3

[2] = test system: thrombocyte aggregation in PRP of rats; experiment: Inhibition of collagen-induced thrombocyte aggregation in PRP of rats upon in vivo administration; settings: rat, 10 mg/kg oral, 90 minutes after administration, *=statistically significant (p 0.05)
Procedure: as §2
(§4) In carrying out these experiments, the compound is administered orally in a tragacanth suspension. The animals are then bled, 90 minutes (rats) or 2 hours (rabbits), after administration, and the PRP is isolated by centrifuging. After isolating the PRP, the measurement of the aggregation inhibition is conducted in vitro analogously to the process described for Table I, without however any preincubation of the samples. Three parts of the rat PRP are furthermore diluted with 1 part of physiological sodium chloride solution.

[3] = test system: thrombocyte aggregation in PRP of rats; experiment: Inhibition of ADP-induced thrombocyte aggregation in PRP of rats upon in vivo administration; settings: rat, 30 mg/kg oral, 90 minutes after administration, *=statistically significant (p 0.05)
Procedure: as §2, §4

[4] = test system: thrombocyte aggregation in PRP of rabbits; experiment: Inhibition of collagen-induced thrombocyte aggregation in PRP of rabbits upon in vivo administration; settings: rabbit, 30 mg/kg oral, 2 hours after administration, *=statistically significant (p 0.05)
Procedure: as §2, §4

[5] = test system: thrombocyte aggregation in PRP of rabbits; experiment: Inhibition of ADP-induced thrombocyte aggregation in PRP of rabbits upon in vivo administration; settings: rabbit, 30 mg/kg oral, 2 hours after administration, *=statistically significant (p 0.05)
Procedure: as §2, §4

Rabbit PRP [6] = experiment: In vitro collagen-induced thrombocyte aggregation inhibition, rabbit PRP; type: cell-based; settings: Oryctolagus cuniculus, 10 min preincubation, 37° C.
Procedure: as §1, §2, §3

[7] = test system: thrombus formation in left carotid artery of a rat; experiment: Inhibition of thrombus formation in vivo (rat carotid artery); settings: 30 mg/kg oral, immediately before the procedure, thrombus isolated 4 hours later
Procedure: In this experiment, the left carotid artery of a rat is exposed and cooled to minus 15° C. to stimulate thrombus formation. At the same time, the blood flow is reduced by means of a silver clip. The thrombus is isolated from the artery 4 hours later and is weighted. The table indicates the percentage reduction in weight of the thrombus when the test compound is administered immediately before the procedure.

ADP-induced aggregation [8] = experiment: ADP-induced aggregation in vitro (summary statement); type: cell-based; settings: relative to the compounds according to the invention
Procedure: as §1, §2

ADP-induced aggregation [9] = experiment: Activity in vivo at the tested doses (summary statement)
Procedure: as §4

| SMILES | IC50 (Human PRP) [µg/mL] | IC50 (Rabbit PRP [1]) [µg/mL] | IC50 (Rat PRP) [µg/mL] | Percent inhibition (1) (integrated area) [2] [%] | Percent inhibition (2) (amplitude) [2] [%] | Percent inhibition (1) (integrated area) [3] [%] | Percent inhibition (2) (amplitude) [3] [%] | Percent inhibition (1) (integrated area) [4] [%] | Percent inhibition (2) (amplitude) [4] [%] | Percent inhibition (1) (integrated area) [5] [%] | Percent inhibition (2) (amplitude) [5] [%] | IC50 (Rabbit PRP [6]) [µg/mL] | Percentage inhibition (percentage reduction in weight of the thrombus) [7] [Percentage] | activity in vitro (ADP-induced aggregation [8]) | activity in vivo (ADP-induced aggregation [9]) |
| --- | --- | --- | --- | --- | --- | --- | --- | --- | --- | --- | --- | --- | --- | --- | --- |
| CC(=O)Oc1ccccc1C(=O)O [Acetylsalicylic acid] | > 100 | > 10 | > 10 | 31 | 35 | 15 | 27 | 63 | 58 | 15 | 6 | – | – | – | – |
| CCN(CC)CCn1sc2cc(C)cc(C)c2c1=O [Compound A, 2-(2-diethylaminoethyl)-4,6-dimethyl-1,2-benzisothiazolin-3-one] | – | 1 (≈ 3.59 µM) | 1 (≈ 3.59 µM) | 72 | 71 | 45 | 77 | 74 | 72 | 33 | 54 | 1 (≈ 3.59 µM) | 48 | – | – |
| OCCN(CCO)c1nc(N2CCCCC2)c2nc(N(CCO)CCO)nc(N3CCCCC3)c2n1 [Dipyridamol] | > 100 | – | > 10 | 5 | 7 | – | -23 | – | – | – | – | – | 17 | substantially less active in vitro | inactive at the tested doses in vivo |
| O=C1C(CC[S+]([O-])c2ccccc2)C(=O)N(c2ccccc2)N1c1ccccc1 (centres unmarked) [Sulfinepyrazone] | > 100 | – | > 10 | -3 | 0 | – | -5 | – | – | – | – | – | – | substantially less active in vitro | inactive at the tested doses in vivo |
